Test results taken from patent US20250214942A1, “INHIBITORS OF RECEPTOR INTERACTING PROTEIN KINASE I FOR THE TREATMENT OF DISEASE” (Board of Regents, The University of Texas System, priority 2019, published 2025).
Read-outs that look alike come from different tables or passages of the source.

Assays:
[1] = target: RIPK1 (Homo sapiens (Human), UniProt Q13546); assay: ADP-Glo kinase assay (RIPK1 activity, conversion of ATP to ADP); assay type: biochemical; details: 5 nM RIPK1, 50 μM ATP, 6 h reaction; read-out: RIPK1 Enzyme Avg IC50
Method in brief: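 RIPK1 (5 nM final) was preincubated 10 min at rt with 1:3-diluted compounds in HEPES pH 7.5/MgCl2/DTT/BSA/CHAPS buffer. ATP (50 μM final) was then added for 6 h, and ADP formed was read by ADP-Glo luminescence. IC50 values came from four-parameter logistic fitting.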

[2] = test system: human monocytic cell line U937; assay: Human U937 cellular necroptosis assay (TNFalpha + z-VAD-FMK, Cell Titer-Glo viability); assay type: cell-based; details: U937 cells, 25 ng/mL human TNFalpha + 25 μM z-VAD-FMK, read-out: hU937 Avg IC50
Method in brief: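 Readout is CellTiter-Glo 2.0 luminescence after 22 h at 37° C with compound, in cells triggered by human TNFalpha (25 ng/mL) and z-VAD-FMK (25 μM) in phenol red-free RPMI/10% FBS. Values are run-averaged IC50s from a four-parameter logistic curve.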

Sequence of RIPK1 (Q13546 1-327): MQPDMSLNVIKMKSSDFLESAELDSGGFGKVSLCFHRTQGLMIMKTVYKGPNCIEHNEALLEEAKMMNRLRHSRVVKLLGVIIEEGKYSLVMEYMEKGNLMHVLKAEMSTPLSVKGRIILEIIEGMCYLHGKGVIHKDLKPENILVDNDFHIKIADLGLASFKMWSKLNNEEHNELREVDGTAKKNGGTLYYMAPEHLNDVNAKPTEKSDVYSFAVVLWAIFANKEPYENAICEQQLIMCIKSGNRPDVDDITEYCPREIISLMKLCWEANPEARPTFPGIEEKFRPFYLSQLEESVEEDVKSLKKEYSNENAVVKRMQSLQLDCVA

Row | SMILES | IC50 [1] | IC50 ([2]; Homo sapiens, U-937, 22 h) | IC50 ([2]; 22 h)
1 | O=C(N1N=CCC1c1cc(F)cc(F)c1)C12CC(C(F)c3cccc(Cl)c3)(C1)C2 (stereo not drawn) [Example 42, (3-((3-chlorophenyl)fluoromethyl)bicyclo[1.1.1]pentan-1-yl)(5-(3,5-difluorophenyl)-4,5-dihydro-1H-pyrazol-1-yl)methanone] | 0.031 µM | 0.051 µM | –
2 | CC(Oc1cc(Cl)ncn1)C12CC(C(=O)N3CC(F)CC3c3cccc(F)c3)(C1)C2 (stereo not drawn) [Example 43, (3-(1-((6-Chloropyrimidin-4-yl)oxy)ethyl)bicyclo[1.1.1]pentan-1-yl)(4-fluoro-2-(3-fluorophenyl)pyrrolidin-1-yl)methanone] | 1.7 µM | 4.21 µM | –
3 | CC1=NN(C(=O)C23CC(Cn4cc(C#N)cn4)(C2)C3)C(c2cc(F)cc(F)c2)C1 (stereo not drawn) [Example 47, 1-((3-(5-(3,5-difluorophenyl)-3-methyl-4,5-dihydro-1H-pyrazole-1-carbonyl)-bicyclo[1.1.1]pentan-1-yl)methyl)-1H-pyrazole-4-carbonitrile] | 0.093 µM | 1.11 µM | –
4 | O=C(N1CC(F)CC1c1cccc(F)c1)C12CC(Cn3ncc4ncccc43)(C1)C2 (stereo not drawn) [Example 48, (3-((1H-pyrazolo[4,3-b]pyridin-1-yl)methyl)bicyclo[1.1.1]pentan-1-yl)-(4-fluoro-2-(3-fluorophenyl)pyrrolidin-1-yl)methanone] | 0.186 µM | 1.29 µM | –
5 | Cc1cnc(C2CC=NN2C(=O)C23CC(Cn4ncc5cc(C#N)ccc54)(C2)C3)cn1 (stereo not drawn) [Example 49, 1-((3-(5-(5-Methylpyrazin-2-yl)-4,5-dihydro-1H-pyrazole-1-carbonyl)-bicyclo[1.1.1]pentan-1-yl)methyl)-1H-indazole-5-carbonitrile] | 0.022 µM | 0.067 µM | –
6 | Cc1cncc(C2CC=NN2C(=O)C23CC(Cn4ncc5cc(C#N)ccc54)(C2)C3)n1 (stereo not drawn) [Example 50, 1-((3-(5-(6-methylpyrazin-2-yl)-4,5-dihydro-1H-pyrazole-1-carbonyl)bicyclo[1.1.1]pentan-1-yl)methyl)-1H-indazole-5-carbonitrile] | 0.016 µM | 0.036 µM | –
7 | N#Cc1ccc2c(cnn2CC23CC(C(=O)N4N=CCC4c4cnccn4)(C2)C3)c1 (stereo not drawn) [Example 51, 1-((3-(5-(pyrazin-2-yl)-4,5-dihydro-1H-pyrazole-1-carbonyl)bicyclo[1.1.1]pentan-1-yl)methyl)-1H-indazole-5-carbonitrile] | 0.022 µM | 0.04 µM | –
8 | N#Cc1ccc2c(cnn2CC23CC(C(=O)N4N=CCC4c4ccccc4)(C2)C3)c1 (stereo not drawn) [Example 52, 1-((3-(5-phenyl-4,5-dihydro-1H-pyrazole-1-carbonyl)-bicyclo[1.1.1]pentan-1-yl)methyl)-1H-indazole-5-carbonitrile] | 0.024 µM | 0.016 µM | –
9 | NC(=O)c1cn(CC23CC(C(=O)N4N=CCC4c4cc(F)cc(F)c4)(C2)C3)nn1 (stereo not drawn) [Example 54, 1-((3-(5-(3,5-difluorophenyl)-4,5-dihydro-1H-pyrazole-1-carbonyl)-bicyclo[1.1.1]pentan-1-yl)methyl)-1H-1,2,3-triazole-4-carboxamide] | 0.409 µM | 2.64 µM | –
10 | NC(=O)c1cnnn1CC12CC(C(=O)N3N=CCC3c3cc(F)cc(F)c3)(C1)C2 (stereo not drawn) [Example 55, 1-((3-(5-(3,5-difluorophenyl)-4,5-dihydro-1H-pyrazole-1-carbonyl)-bicyclo[1.1.1]pentan-1-yl)methyl)-1H-1,2,3-triazole-5-carboxamide] | 0.896 µM | 8.93 µM | –
11 | N#Cc1ccc2cn(CC34CC(C(=O)N5N=CCC5c5cc(F)cc(F)c5)(C3)C4)nc2c1 (stereo not drawn) [Example 56, 2-((3-(5-(3,5-difluorophenyl)-4,5-dihydro-1H-pyrazole-1-carbonyl)bicyclo[1.1.1]-pentan-1-yl)methyl)-2H-indazole-6-carbonitrile] | 0.019 µM | 0.063 µM | –
12 | COc1ccc2cn(CC34CC(C(=O)N5N=CCC5c5cc(F)cc(F)c5)(C3)C4)nc2c1 (stereo not drawn) [Example 57, (5-(3,5-difluorophenyl)-4,5-dihydro-1H-pyrazol-1-yl)(3-((6-methoxy-2H-indazol-2-yl)methyl)bicyclo[1.1.1]-pentan-1-yl)methanone] | 0.032 µM | 0.11 µM | –
13 | O=C(N1N=CCC1c1cc(F)cc(F)c1)C12CC(Cn3cc4cccc(Cl)c4n3)(C1)C2 (stereo not drawn) [Example 58, (3-((7-chloro-2H-indazol-2-yl)methyl)bicyclo[1.1.1]-pentan-1-yl)(5-(3,5-difluoro-phenyl)-4,5-dihydro-1H-pyrazol-1-yl)methanone] | 0.034 µM | 0.16 µM | –
14 | O=C(N1N=CCC1c1cc(F)cc(F)c1)C12CC(Cn3cc4ncccc4n3)(C1)C2 (stereo not drawn) [Example 59, (3-((2H-pyrazolo[4,3-b]-pyridin-2-yl)methyl)bicyclo-[1.1.1]pentan-1-yl)(5-(3,5-difluorophenyl)-4,5-dihydro-1H-pyrazol-1-yl)methanone] | 0.043 µM | 0.226 µM | –
15 | N#Cc1cccc2nn(CC34CC(C(=O)N5N=CCC5c5cc(F)cc(F)c5)(C3)C4)cc12 (stereo not drawn) [Example 60, 2-((3-(5-(3,5-difluorophenyl)-4,5-dihydro-1H-pyrazole-1-carbonyl)bicyclo[1.1.1]-pentan-1-yl)methyl)-2H-indazole-4-carbonitrile] | 0.044 µM | 0.178 µM | –
16 | N#Cc1ccc2nn(CC34CC(C(=O)N5N=CCC5c5cc(F)cc(F)c5)(C3)C4)cc2c1 (stereo not drawn) [Example 61, 2-((3-(5-(3,5-difluorophenyl)-4,5-dihydro-1H-pyrazole-1-carbonyl)bicyclo[1.1.1]-pentan-1-yl)methyl)-2H-indazole-5-carbonitrile] | 0.045 µM | 0.211 µM | –
17 | O=C(N1N=CCC1c1cc(F)cc(F)c1)C12CC(Cn3cc4ccc(F)cc4n3)(C1)C2 (stereo not drawn) [Example 62, (5-(3,5-difluorophenyl)-4,5-dihydro-1H-pyrazol-1-yl)(3-((6-fluoro-2H-indazol-2-yl)methyl)bicyclo[1.1.1]-pentan-1-yl)methanone] | 0.046 µM | 0.133 µM | –
18 | N#Cc1ccc2c(cnn2CC23CC(C(=O)N4N=CCC4c4cc(F)cc(F)c4)(C2)C3)c1 (stereo not drawn) [Example 64, 1-((3-(5-(3,5-difluorophenyl)-4,5-dihydro-1H-pyrazole-1-carbonyl)bicyclo[1.1.1]-pentan-1-yl)methyl)-1H-indazole-5-carbonitrile] | 0.01 µM | 0.007 µM | –
19 | O=C(N1N=CCC1c1cc(F)cc(F)c1)C12CC(Cn3ncc4ncccc43)(C1)C2 (stereo not drawn) [Example 65, (3-((1H-pyrazolo[4,3-b]-pyridin-1-yl)methyl)bicyclo-[1.1.1]pentan-1-yl)(5-(3,5-difluorophenyl)-4,5-dihydro-1H-pyrazol-1-yl)methanone] | 0.011 µM | – | 0.044 µM
20 | N#Cc1cccc2c1cnn2CC12CC(C(=O)N3N=CCC3c3cc(F)cc(F)c3)(C1)C2 (stereo not drawn) [Example 67, 1-((3-(5-(3,5-difluorophenyl)-4,5-dihydro-1H-pyrazole-1-carbonyl)bicyclo[1.1.1]-pentan-1-yl)methyl)-1H-indazole-4-carbonitrile] | 0.019 µM | 0.054 µM | –
21 | O=C(N1N=CCC1c1cc(F)cc(F)c1)C12CC(Cn3ncc4cncc(Cl)c43)(C1)C2 (stereo not drawn) [Example 68, (3-((7-chloro-1H-pyrazolo-[4,3-c]pyridin-1-yl)methyl)-bicyclo[1.1.1]pentan-1-yl)(5-(3,5-difluorophenyl)-4,5-dihydro-1H-pyrazol-1-yl)methanone] | 0.02 µM | 0.034 µM | –
22 | O=C(N1N=CCC1c1cc(F)cc(F)c1)C12CC(Cn3ncc4cccc(Cl)c43)(C1)C2 (stereo not drawn) [Example 69, (3-((7-chloro-1H-indazol-1-yl)methyl)bicyclo[1.1.1]-pentan-1-yl)(5-(3,5-difluoro-phenyl)-4,5-dihydro-1H-pyrazol-1-yl)methanone] | 0.022 µM | 0.044 µM | –
23 | O=C(N1N=CCC1c1cc(F)cc(F)c1)C12CC(Cn3ncc4ccc(F)cc43)(C1)C2 (stereo not drawn) [Example 70, (5-(3,5-difluorophenyl)-4,5-dihydro-1H-pyrazol-1-yl)(3-((6-fluoro-1H-indazol-1-yl)-methyl)bicyclo[1.1.1]pentan-1-yl)methanone] | 0.034 µM | 0.026 µM | –
24 | N#Cc1cnn(CC23CC(C(=O)N4N=CCC4c4cc(F)cc(F)c4)(C2)C3)c1 (stereo not drawn) [Example 71, 1-((3-(5-(3,5-difluorophenyl)-4,5-dihydro-1H-pyrazole-1-carbonyl)bicyclo[1.1.1]-pentan-1-yl)methyl)-1H-pyrazole-4-carbonitrile] | 0.039 µM | 0.134 µM | –
25 | O=C(N1N=CCC1c1cc(F)cc(F)c1)C12CC(Cn3cc(C(F)(F)F)cn3)(C1)C2 (stereo not drawn) [Example 72, (5-(3,5-difluorophenyl)-4,5-dihydro-1H-pyrazol-1-yl)(3-((4-(trifluoromethyl)-1H-pyrazol-1-yl)methyl)bicyclo-[1.1.1]pentan-1-yl)methanone] | 0.078 µM | 0.098 µM | –
26 | COc1ccc2cnn(CC34CC(C(=O)N5N=CCC5c5cc(F)cc(F)c5)(C3)C4)c2c1 (stereo not drawn) [Example 73, (5-(3,5-difluorophenyl)-4,5-dihydro-1H-pyrazol-1-yl)(3-((6-methoxy-1H-indazol-1-yl)methyl)bicyclo[1.1.1]-pentan-1-yl)methanone] | 0.111 µM | 0.527 µM | –
27 | Cc1cnn(CC23CC(C(=O)N4N=CCC4c4cc(F)cc(F)c4)(C2)C3)c1 (stereo not drawn) [Example 74, (5-(3,5-difluorophenyl)-4,5-dihydro-1H-pyrazol-1-yl)(3-((4-methyl-1H-pyrazol-1-yl)-methyl)bicyclo[1.1.1]pentan-1-yl)methanone] | 0.124 µM | 0.514 µM | –
